Values after ≈ are worked out from the molar mass of the structure shown. Where a SMILES comes first, the peptide text is derived from it.
Key:
[1] = tested on: S. aureus ATCC 25923 biofilm formation; assay type: cell-based, Staphylococcus aureus; conditions: ATCC 25923, 24 h
Protocol: (§1) The minimum inhibitory concentrations (MICs) of test compounds were assessed by broth microdilution method on 96-well plates, according to the guidelines of Clinical and Laboratory Standards Institute (CLSI). For this purpose, reference strains of bacteria: S. aureus ATCC 25923, E. faecalis PCM 2673, E. coli ATCC 25922, and P. aeruginosa ATCC 9027; and fungus: C. albicans ATCC 10231 were used (The Polish Collection of Microorganism, Polish Academy of Sciences, Wrocław, Poland). Bacteria at initial inoculums of 0.5 × 10^5 CFU/mL in Mueller Hinton Broth (MHB), and fungi at initial inoculums of 2 × 10^3 CFU/mL in RPMI-1640, were exposed to the compounds over the concentration range of 1–512 μg/mL. The polystyrene plates were incubated at 37 °C for 18 h with bacteria and for 24 h with C. albicans. The MIC was taken as the lowest concentration at which a noticeable growth of microorganisms was inhibited. Minimum biofilm eradication concentrations (MBECs) were determined using a previously described protocol. For this purpose, 96-well polystyrene flat-bottom plates and a resazurin (7-hydroxy-3H-phenoxazin-3-one 10-oxide) were used. In this assay, a specific feature of resazurin is utilized, which upon the contact with living cells is metabolized and reduced from the basic blue form to pink resorufin. Briefly, 24-h cultures of microorganisms were diluted 1,000-fold and 100 μL of that suspension was added into the test plates. After 24 h of incubation at 37 °C, the wells of the plates were rinsed three times with phosphate buffer saline (PBS) to remove non-adherent cells. Subsequently, 100 μL of test compounds in concentration range (diluted in appropriate media) were added to each well. After 24 h of incubation at 37 °C, 20 μL of the resazurin (4 mg/mL) was added. The MBEC was read after 1 h. Additionally, anti-adhesive properties of the compounds were also analyzed. The assay was conducted on 96-well polystyrene flat-bottom plates. The preparation of inoculums was followed by a 500-fold dilution of 24-h cultures of microorganisms. Briefly, to evaluate the effect of the peptides in preventing biofilm formation, 50 μL of compounds in concentration range, diluted in appropriate medium, were prepared. Subsequently, the 50 μL of the bacterial/fungal inoculums were added to reach the same microbial density as that in MBEC assay. After 24 h of incubation at 37 °C, the wells were rinsed three times with PBS and the fresh media with resazurin (0.6 mg/mL) were added. Then, after 1 h of incubation, the minimum biofilm inhibitory concentrations (MBIC) were read. MBECs as well as MBICs were determined as the lowest concentration at which the reduction of resazurin was lower or equal (10% ± 0.5%) as compared to positive (100%) and negative (0%) controls. All experiments were performed in triplicate.

[2] = tested on: S. aureus ATCC 25923 biofilm; assay type: cell-based, Staphylococcus aureus; conditions: ATCC 25923, 24 h
Protocol: as §1

S. aureus ATCC 25923 = assay type: cell-based, Staphylococcus aureus; conditions: ATCC 25923, 18 h
Protocol: as §1

[3] = tested on: E. faecalis PCM 2673 biofilm formation; assay type: cell-based, Enterococcus faecalis; conditions: 24 h
Protocol: as §1

[4] = tested on: E. faecalis PCM 2673 biofilm; assay type: cell-based, Enterococcus faecalis; conditions: 24 h
Protocol: as §1

E. faecalis PCM 2673 = assay type: cell-based, Enterococcus faecalis; conditions: PCM 2673, 18 h
Protocol: as §1

[5] = tested on: E. coli ATCC 25922 biofilm formation; assay type: cell-based, Escherichia coli; conditions: ATCC 25922, 24 h
Protocol: as §1

[6] = tested on: E. coli ATCC 25922 biofilm; assay type: cell-based, Escherichia coli; conditions: ATCC 25922, 24 h
Protocol: as §1

E. coli ATCC 25922 = assay type: cell-based, Escherichia coli; conditions: ATCC 25922, 18 h
Protocol: as §1

[7] = tested on: P. aeruginosa ATCC 9027 biofilm formation; assay type: cell-based, Pseudomonas aeruginosa; conditions: ATCC 9027, 24 h
Protocol: as §1

[8] = tested on: P. aeruginosa ATCC 9027 biofilm; assay type: cell-based, Pseudomonas aeruginosa; conditions: ATCC 9027, 24 h
Protocol: as §1

P. aeruginosa ATCC 9027 = assay type: cell-based, Pseudomonas aeruginosa; conditions: ATCC 9027, 18 h
Protocol: as §1

[9] = tested on: C. albicans ATCC 10231 biofilm formation; assay type: cell-based, Candida albicans; conditions: ATCC 10231, 24 h
Protocol: as §1

[10] = tested on: C. albicans ATCC 10231 biofilm; assay type: cell-based, Candida albicans; conditions: ATCC 10231, 24 h
Protocol: as §1

C. albicans ATCC 10231 = assay type: cell-based, Candida albicans; conditions: ATCC 10231, 24 h
Protocol: as §1

[11] = tested on: human red blood cells (RBCs); assay: Hemolysis assay; assay type: cell-based; conditions: red cells of human, 1 h
Protocol: The hemolytic activity of the peptides was determined using fresh human red blood cells (RBCs) collected from a healthy human donor according to the procedure described in the literature. Fresh RBCs with EDTA as anticoagulant were rinsed three times with a PBS by centrifugation at 800×g for 10 min and resuspension in PBS. Serial dilution of the peptides in PBS (1–256 μg/mL) on 96-well polystyrene plates was prepared and the stock solution of RBCs was added up to a final volume of 100 μL with a 4% concentration of erythrocytes (v/v). The control wells for 0 and 100% hemolysis contained of RBCs suspended in PBS and 1% of Triton-X 100, respectively. Subsequently, the plates were incubated for 1 h at 37 °C and then centrifuged at 800×g for 10 min at 4 °C (Sorvall ST 16R Centrifuge, Thermo Scientific). After centrifugation, the supernatant was carefully […] to new microtiter plates and the release of hemoglobin was measured at 540 nm (Multiskan™ GO Microplate Spectrophotometer, Thermo Scientific). All experiments were conducted in triplicate.

in vitro = in vitro ADME; conditions: bovine, serum
Protocol: To assess serum stability, the peptides (0.5 mg) were dissolved in 4 mL of 25% (v/v) fetal bovine serum (FBS) in PBS and incubated at 37 °C. The aliquots of 100 μL of the test samples were transferred to 96-well polystyrene plates in triplicate for each time point. Samples were quenched at zero time (t0) and after 6 h of incubation at 37 °C by addition of 100 μL of ice-cold acetonitrile and stored at 4 °C for 10 min. Afterwards, the samples were centrifuged at 13,000×g for 20 min at 4 °C and diluted 1:1 with HPLC-grade water. All samples were analyzed using the Waters Alliance e2695 system with Waters Acquity QDa Detector (software–Empower®3). Analyses were conducted on an Agilent Zorbax SB-C18 RP-18 column (4.6 × 50 mm, 1.8-μm particle size, 80-Å pore size) using a linear 30–60% acetonitrile (B) gradient in deionized water (A) over 6 min at 25.0 ± 0.1 °C, at a flow rate of 0.5 mL/min and MS working in selected ion recording (SIR) mode (A—0.1% aqueous formic acid (FA) and B—0.1% FA in acetonitrile). The percentage of peptide remaining intact was calculated from peak areas of samples at t0 and after 6 h of incubation in serum (the % of remaining peptide = peak area after 6 h/peak area at t0). The mass-to-charge ratios selected for SIR mode were based on values obtained from full spectrum analysis of each peptide and are presented in Table 1.

Structure (SMILES)	MBIC, S. aureus ATCC 25923 [1] [µg/mL]	MBEC, S. aureus ATCC 25923 [2] [µg/mL]	MIC, S. aureus ATCC 25923 (S. aureus ATCC 25923) [µg/mL]	MBIC, E. faecalis PCM 2673 [3] [µg/mL]	MBEC, E. faecalis PCM 2673 [4] [µg/mL]	MIC, E. faecalis PCM 2673 (E. faecalis PCM 2673) [µg/mL]	MBIC, E. coli ATCC 25922 [5] [µg/mL]	MBEC, E. coli ATCC 25922 [6] [µg/mL]	MIC, E. coli ATCC 25922 (E. coli ATCC 25922) [µg/mL]	MBIC, P. aeruginosa ATCC 9027 [7] [µg/mL]	MBEC, P. aeruginosa ATCC 9027 [8] [µg/mL]	MIC, P. aeruginosa ATCC 9027 (P. aeruginosa ATCC 9027) [µg/mL]	MBIC, C. albicans ATCC 10231 [9] [µg/mL]	MBEC, C. albicans ATCC 10231 [10] [µg/mL]	MIC, C. albicans ATCC 10231 (C. albicans ATCC 10231) [µg/mL]	Percentage of hemolysis at 1 μg/mL [11] [%]	Percentage of hemolysis at 2 μg/mL [11] [%]	Percentage of hemolysis at 4 μg/mL [11] [%]	Percentage of hemolysis at 8 μg/mL [11] [%]	Percentage of hemolysis at 16 μg/mL [11] [%]	other results
CC[C@H](C)[C@H](NC(=O)[C@H](C)NC(=O)[C@H](Cc1ccccc1)NC(=O)[C@H](CC(C)C)NC(=O)CN)C(=O)N[C@H](C(=O)N[C@@H](CCCCN)C(=O)N[C@@H](CCCCN)C(=O)N[C@H](C(=O)N[C@@H](C)C(=O)N[C@@H](CCC(=O)O)C(=O)N[C@@H](CO)C(=O)N[C@@H](Cc1ccccc1)C(N)=O)[C@@H](C)CC)[C@@H](C)CC [Peptide D4A] (H-GLFAIIKKIAESF-NH2)	16	16	16 (≈ 11.1 µM)	32	128	32 (≈ 22.3 µM)	8	32	8 (≈ 5.57 µM)	64	512	64 (≈ 44.6 µM)	2	512	64 (≈ 44.6 µM)	0.2	0.3	0.3	0.3	0.3	Percentage of hemolysis at 32 μg/mL [11]: 1.5%; Percentage of hemolysis at 64 μg/mL [11]: 6.6%; Percentage of hemolysis at 128 μg/mL [11]: 23.2%; Percentage of hemolysis at 256 μg/mL [11]: 61.0%; remaining at 6 h, 0.125 mg/mL (in vitro): 44%
CC[C@H](C)[C@H](NC(=O)[C@H](CCCCN)NC(=O)[C@H](CCCCN)NC(=O)[C@@H](NC(=O)[C@@H](NC(=O)[C@H](CC(=O)O)NC(=O)[C@H](C)NC(=O)[C@H](CC(C)C)NC(=O)CN)[C@@H](C)CC)[C@@H](C)CC)C(=O)N[C@@H](C)C(=O)N[C@@H](CCC(=O)O)C(=O)N[C@@H](CO)C(=O)N[C@@H](Cc1ccccc1)C(N)=O [Peptide F3A] (H-GLADIIKKIAESF-NH2)	>512	> 512	512 (≈ 365 µM)	256	> 512	256 (≈ 182 µM)	256	256	128 (≈ 91.2 µM)	512	> 512	512 (≈ 365 µM)	4	> 512	128 (≈ 91.2 µM)	0.1	0.1	0.0	0.0	0.0	Percentage of hemolysis at 32 μg/mL [11]: 0.0%; Percentage of hemolysis at 64 μg/mL [11]: 0.0%; Percentage of hemolysis at 128 μg/mL [11]: 0.0%; Percentage of hemolysis at 256 μg/mL [11]: 0.3%; remaining at 6 h, 0.125 mg/mL (in vitro): 38%
